Source: the supplement of paper PMC10307832

What was measured:
Experiment in all cases: relative viability (nuclei count vs DMSO), 5 days (fraction); higher = more cells survive
UMC-11 = system: UMC-11
Summary of the method: (§1)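 Relative viability was taken as the ratio of nuclei in treated wells to nuclei in vehicle wells. Lung cancer cell lines in 1536-well plates received compounds by pin tool one day after seeding, either one drug alone or a fixed anchor-drug dose plus five library-drug doses (not always all listed) in √10 steps. Nuclei were counted on 4× images after 5 days of treatment, and values are medians of duplicate plates.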

NCI-H650 = system: NCI-H650
Summary of the method: as §1

A-427 = system: A-427
Summary of the method: as §1

PC-3 [JPC-3] = system: PC-3 [JPC-3]
Summary of the method: as §1

NCI-H2405 = system: NCI-H2405
Summary of the method: as §1

NCI-H1975 = system: NCI-H1975
Summary of the method: as §1

NCI-H460 = system: NCI-H460
Summary of the method: as §1

NCI-H3122 = system: NCI-H3122
Summary of the method: as §1

SK-LU-1 = system: SK-LU-1
Summary of the method: as §1

NCI-H1755 = system: NCI-H1755
Summary of the method: as §1

NCI-H1915 = system: NCI-H1915
Summary of the method: as §1

NCI-H441 = system: NCI-H441
Summary of the method: as §1

NCI-H1793 = system: NCI-H1793
Summary of the method: as §1

NCI-H2023 = system: NCI-H2023
Summary of the method: as §1

H3255 = system: H3255
Summary of the method: as §1

HCC-15 = system: HCC-15
Summary of the method: as §1

NCI-H1437 = system: NCI-H1437
Summary of the method: as §1

NCI-H2009 = system: NCI-H2009
Summary of the method: as §1

LXF-289 = system: LXF-289
Summary of the method: as §1

HCC-366 = system: HCC-366
Summary of the method: as §1

NCI-H596 = system: NCI-H596
Summary of the method: as §1

PC-14 = system: PC-14
Summary of the method: as §1

HARA = system: HARA
Summary of the method: as §1

O=c1[nH]c2ccccc2n1C1CCN(CCCC(c2ccc(F)cc2)c2ccc(F)cc2)CC1 [Pimozide] + Cc1cc(Nc2cc(N3CCN(C)CC3)nc(Sc3ccc(NC(=O)C4CC4)cc3)n2)n[nH]1 [Tozasertib] (partner 0.1 µM)
relative viability (UMC-11; first compound 0.08 µM): 0.188 | relative viability (UMC-11; first compound 0.253 µM): 0.201 | relative viability (UMC-11; first compound 0.8 µM): 0.205 | relative viability (UMC-11; first compound 2.53 µM): 0.205 | relative viability (UMC-11; first compound 8 µM): 0.205 | relative viability (NCI-H650; first compound 0.08 µM): 0.758 | relative viability (NCI-H650; first compound 0.253 µM): 0.702 | relative viability (NCI-H650; first compound 0.8 µM): 0.662 | relative viability (NCI-H650; first compound 2.53 µM): 0.698 | relative viability (NCI-H650; first compound 8 µM): 0.782 | relative viability (A-427; first compound 0.08 µM): 0.194 | relative viability (A-427; first compound 0.253 µM): 0.189 | relative viability (A-427; first compound 0.8 µM): 0.222 | relative viability (A-427; first compound 2.53 µM): 0.16 | relative viability (A-427; first compound 8 µM): 0.208 | relative viability (PC-3 [JPC-3]; first compound 0.08 µM): 0.557 | relative viability (PC-3 [JPC-3]; first compound 0.253 µM): 0.875 | relative viability (PC-3 [JPC-3]; first compound 0.8 µM): 0.754 | relative viability (PC-3 [JPC-3]; first compound 2.53 µM): 0.771 | relative viability (PC-3 [JPC-3]; first compound 8 µM): 0.788 | relative viability (NCI-H2405; first compound 0.08 µM): 0.754 | relative viability (NCI-H2405; first compound 0.253 µM): 0.712 | relative viability (NCI-H2405; first compound 0.8 µM): 0.683 | relative viability (NCI-H2405; first compound 2.53 µM): 0.673 | relative viability (NCI-H2405; first compound 8 µM): 0.575 | relative viability (NCI-H1975; first compound 0.08 µM): 0.766 | relative viability (NCI-H1975; first compound 0.253 µM): 0.67 | relative viability (NCI-H1975; first compound 0.8 µM): 0.717 | relative viability (NCI-H1975; first compound 2.53 µM): 0.618 | relative viability (NCI-H1975; first compound 8 µM): 0.714 | relative viability (NCI-H460; first compound 0.08 µM): 0.407 | relative viability (NCI-H460; first compound 0.253 µM): 0.314 | relative viability (NCI-H460; first compound 0.8 µM): 0.446 | relative viability (NCI-H460; first compound 2.53 µM): 0.0946 | relative viability (NCI-H460; first compound 8 µM): 0.436 | relative viability (NCI-H3122; first compound 0.08 µM): 0.397 | relative viability (NCI-H3122; first compound 0.253 µM): 0.386 | relative viability (NCI-H3122; first compound 0.8 µM): 0.353 | relative viability (NCI-H3122; first compound 2.53 µM): 0.216 | relative viability (NCI-H3122; first compound 8 µM): 0.378 | relative viability (SK-LU-1; first compound 0.08 µM): 0.326 | relative viability (SK-LU-1; first compound 0.253 µM): 0.323 | relative viability (SK-LU-1; first compound 0.8 µM): 0.328 | relative viability (SK-LU-1; first compound 2.53 µM): 0.29 | relative viability (SK-LU-1; first compound 8 µM): 0.299 | relative viability (NCI-H1755; first compound 0.08 µM): 0.562 | relative viability (NCI-H1755; first compound 0.253 µM): 0.58 | relative viability (NCI-H1755; first compound 0.8 µM): 0.591 | relative viability (NCI-H1755; first compound 2.53 µM): 0.491 | relative viability (NCI-H1755; first compound 8 µM): 0.57 | relative viability (NCI-H1915; first compound 0.08 µM): 0.445 | relative viability (NCI-H1915; first compound 0.253 µM): 0.383 | relative viability (NCI-H1915; first compound 0.8 µM): 0.332 | relative viability (NCI-H1915; first compound 2.53 µM): 0.321 | relative viability (NCI-H1915; first compound 8 µM): 0.368 | relative viability (NCI-H441; first compound 0.08 µM): 0.655 | relative viability (NCI-H441; first compound 0.253 µM): 0.614 | relative viability (NCI-H441; first compound 0.8 µM): 0.569 | relative viability (NCI-H441; first compound 2.53 µM): 0.546 | relative viability (NCI-H441; first compound 8 µM): 0.618 | relative viability (NCI-H1793; first compound 0.253 µM): 0.341 | relative viability (NCI-H1793; first compound 0.8 µM): 0.439 | relative viability (NCI-H1793; first compound 2.53 µM): 0.244 | relative viability (NCI-H1793; first compound 8 µM): 0.278 | relative viability (NCI-H2023; first compound 0.08 µM): 0.352 | relative viability (NCI-H2023; first compound 0.253 µM): 0.314 | relative viability (NCI-H2023; first compound 0.8 µM): 0.454 | relative viability (NCI-H2023; first compound 2.53 µM): 0.228 | relative viability (NCI-H2023; first compound 8 µM): 0.237 | relative viability (H3255; first compound 0.253 µM): 0.592 | relative viability (H3255; first compound 0.8 µM): 0.47 | relative viability (H3255; first compound 2.53 µM): 0.584 | relative viability (H3255; first compound 8 µM): 0.659 | relative viability (HCC-15; first compound 0.08 µM): 0.403 | relative viability (HCC-15; first compound 0.253 µM): 0.365 | relative viability (HCC-15; first compound 0.8 µM): 0.322 | relative viability (HCC-15; first compound 2.53 µM): 0.292 | relative viability (HCC-15; first compound 8 µM): 0.201 | relative viability (NCI-H1437; first compound 0.08 µM): 0.397 | relative viability (NCI-H1437; first compound 0.253 µM): 0.389 | relative viability (NCI-H1437; first compound 0.8 µM): 0.35 | relative viability (NCI-H1437; first compound 2.53 µM): 0.362 | relative viability (NCI-H1437; first compound 8 µM): 0.341 | relative viability (NCI-H2009; first compound 0.08 µM): 0.696 | relative viability (NCI-H2009; first compound 0.253 µM): 0.754 | relative viability (NCI-H2009; first compound 0.8 µM): 0.683 | relative viability (NCI-H2009; first compound 2.53 µM): 0.58 | relative viability (NCI-H2009; first compound 8 µM): 0.577 | relative viability (LXF-289; first compound 0.08 µM): 0.208 | relative viability (LXF-289; first compound 0.253 µM): 0.167 | relative viability (LXF-289; first compound 0.8 µM): 0.173 | relative viability (LXF-289; first compound 2.53 µM): 0.14 | relative viability (LXF-289; first compound 8 µM): 0.126 | relative viability (HCC-366; first compound 0.08 µM): 0.079 | relative viability (HCC-366; first compound 0.253 µM): 0.0803 | relative viability (HCC-366; first compound 0.8 µM): 0.142 | relative viability (HCC-366; first compound 2.53 µM): 0.0868 | relative viability (HCC-366; first compound 8 µM): 0.0997 | relative viability (NCI-H596; first compound 0.08 µM): 0.929 | relative viability (NCI-H596; first compound 0.253 µM): 0.959 | relative viability (NCI-H596; first compound 0.8 µM): 0.893 | relative viability (NCI-H596; first compound 2.53 µM): 0.839 | relative viability (NCI-H596; first compound 8 µM): 0.882 | relative viability (PC-14; first compound 0.253 µM): 0.539 | relative viability (PC-14; first compound 0.8 µM): 0.481 | relative viability (PC-14; first compound 2.53 µM): 0.519 | relative viability (PC-14; first compound 8 µM): 0.552 | relative viability (HARA; first compound 0.253 µM): 0.107 | relative viability (HARA; first compound 0.8 µM): 0.111 | relative viability (HARA; first compound 2.53 µM): 0.0907 | relative viability (HARA; first compound 8 µM): 0.123
